Measured values published in US20240132431A1, “METHOD FOR ALKYLATING ACIDIC FUNCTIONAL GROUP” (Chugai Seiyaku Kabushiki Kaisha, priority 2021, published 2024).
One block for each compound: values may come before it.

Target: T1, Bcl-2 protein (Recombinant Human Bcl-2 Protein) (Homo sapiens, UniProt P10415)
T1 construct: purchased Novus NBP2-34889
Experiment: Binding evaluation of mixture library compounds to Bcl-2 using AS-MS (affinity selection mass spectrometry)
Conditions: for ASMS ratio (%) n = 1 / ASMS ratio (%) n = 2: ASMS Ratio(%)=(A−C)/B×100; for ASMS ratio (%) n = 1: replicate n = 1; for ASMS ratio (%) n = 2: replicate n = 2
Procedure, shortened: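 Pooled library of ~1200 compounds ([…] each, final) incubated with recombinant human Bcl-2 (20 μM final) in Tris-HCl pH 7.4, NaCl, Tween-20, DTT buffer, dark, 23° C., 1 h. Bound fraction recovered by SEC spin column, organic extraction, reversed-phase LC/MS. ASMS Ratio (%) = (A−C)/B×100 versus protein-free standard and SEC blank.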

[1] = AS-MS on the mixture of 1200 library compounds
[2] = AS-MS, mixture of 1200 compounds, Bcl-2

T1 sequence (P10415 whole entry): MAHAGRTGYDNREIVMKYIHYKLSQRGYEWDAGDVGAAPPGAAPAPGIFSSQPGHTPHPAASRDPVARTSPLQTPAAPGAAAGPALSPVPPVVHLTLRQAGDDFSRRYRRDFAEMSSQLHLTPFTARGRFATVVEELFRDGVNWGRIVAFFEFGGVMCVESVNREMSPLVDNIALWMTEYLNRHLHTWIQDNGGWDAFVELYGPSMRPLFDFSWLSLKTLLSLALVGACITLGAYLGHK

ASMS ratio (%) n = 1 [1]: 0.6%
ASMS ratio (%) n = 2 [1]: −0.3%
Compound: CCOc1cncc(C#Cc2ccccc2C(=O)N2CCN(c3ccc(C(=O)N(C)CC45CC6CC(CC(C6)C4)C5)nn3)CC2)c1 [B3A008-01, N-(1-Adamantylmethyl)-6-[4-[2-[2-(5-ethoxypyridin-3-yl)ethynyl]benzoyl]piperazin-1-yl]-N-methylpyridazine-3-carboxamide]

ASMS ratio (%) (n = 1): −15.0%
ASMS ratio (%) (n = 2): 0.0%
Compound: CCOc1cccc(-c2ccc(CN3CCN(c4ccc(C(=O)NS(=O)(=O)c5ccc(NCCSc6ccccc6)c(C(F)(F)F)c5)cc4)CC3)c(OC)c2)c1 [B2R053-01, 4-[4-[[4-(3-Ethoxyphenyl)-2-methoxyphenyl]methyl]piperazin-1-yl]-N-[4-(2-phenylsulfanylethylamino)-3-(trifluoromethyl)phenyl]sulfonylbenzamide]

ASMS ratio (%) n = 1 (AS-MS, mixture library, Bcl-2): 0.9%
ASMS ratio (%) n = 2 (AS-MS, mixture library, Bcl-2): 0.3%
Compound: CCOc1cccc(-c2cc(CN3CCN(c4ccc(C(=O)N(CC)CC)nn4)CC3)cc(C(F)(F)F)c2)c1 [B4J087-01, 6-[4-[[3-(3-Ethoxyphenyl)-5-(trifluoromethyl)phenyl]methyl]piperazin-1-yl]-N,N-diethylpyridazine-3-carboxamide]

ASMS ratio (%) n = 1 [2]: −10.9%
ASMS ratio (%) n = 2 [2]: −5.5%
Compound: CCOc1cccc(-c2cc(CN3CCN(c4ccc(C(=O)NCC56CC7CC(CC(C7)C5)C6)nn4)CC3)cc(OCC)c2)c1 [B1A081-01, N-(1-Adamantylmethyl)-6-[4-[[3-ethoxy-5-(3-ethoxyphenyl)phenyl]methyl]piperazin-1-yl]pyridazine-3-carboxamide]

ASMS ratio (%) n = 1 (AS-MS, mixture library, Bcl-2): 19.9%
ASMS ratio (%) n = 2 (AS-MS, mixture library, Bcl-2): 11.9%
Compound: CCOc1cccc(C#Cc2ccccc2CN2CCN(c3ccc(C(=O)NS(=O)(=O)c4ccc(NCCSc5ccccc5)c([N+](=O)[O-])c4)nn3)CC2)c1 [B2Q095-01]

ASMS ratio (%) n = 1 [1]: 2.7%
ASMS ratio (%) n = 2 [1]: 0.0%
Compound: CCOc1cccc(C#Cc2ccccc2CN2CCN(c3ccc(C(=O)Nc4ccc(OC)cc4)nn3)CC2)c1 [B1O095-01, 6-[4-[[2-[2-(3-Ethoxyphenyl)ethynyl]phenyl]methyl]piperazin-1-yl]-N-(4-methoxyphenyl)pyridazine-3-carboxamide]

ASMS ratio (%) n = 1 [2]: 0.3%
ASMS ratio (%) n = 2 [2]: −0.8%
Compound: CCOc1cccc(-c2ccc(C(=O)N3CCN(c4ccc(C(=O)NCC(F)(F)F)cc4)CC3)cc2C)c1 [B1K025-01, 4-[4-[4-(3-Ethoxyphenyl)-3-methylbenzoyl]piperazin-1-yl]-N-(2,2,2-trifluoroethyl)benzamide]

ASMS ratio (%) n = 1 (AS-MS, mixture library, Bcl-2): 15.6%
ASMS ratio (%) n = 2 (AS-MS, mixture library, Bcl-2): −17.9%
Compound: CCOc1cccc(-c2cc(CN3CCN(c4ccc(C(=O)NS(=O)(=O)c5ccc(NCCSc6ccccc6)c([N+](=O)[O-])c5)cc4)CC3)cc(C(F)(F)F)c2)c1 [B2Q061-01, 4-[4-[[3-(3-Ethoxyphenyl)-5-(trifluoromethyl)phenyl]methyl]piperazin-1-yl]-N-[3-nitro-4-(2-phenylsulfanylethylamino)phenyl]sulfonylbenzamide]

ASMS ratio (%) n = 1 [2]: 0.4%
ASMS ratio (%) n = 2 [2]: 3.1%
Compound: CCOc1cncc(-c2ccc(C(=O)N3CCN(c4ccc(C(=O)NCC56CC7CC(CC(C7)C5)C6)cc4)CC3)c3ccccc23)c1 [B1A036-01, N-(1-Adamantylmethyl)-4-[4-[4-(5-ethoxypyridin-3-yl)naphthalene-1-carbonyl]piperazin-1-yl]benzamide]

ASMS ratio (%) (n = 1): 0.0%
ASMS ratio (%) (n = 2): 0.0%
Compound: CCOc1cccc(-c2cc(OC)c(CN3CCN(c4ccc(C(=O)NS(=O)(=O)CCC(F)(F)F)cc4)CC3)c(OC)c2)c1 [B2N059-01, 4-[4-[[4-(3-Ethoxyphenyl)-2,6-dimethoxyphenyl]methyl]piperazin-1-yl]-N-(3,3,3-trifluoropropylsulfonyl)benzamide]

Compound: CCOc1cncc(-c2ccc(CN3CCN(c4ccc(C(=O)N(CC)CC)cc4)CC3)c(OC)c2)c1 [B4J054-01, 4-[4-[[4-(5-Ethoxypyridin-3-yl)-2-methoxyphenyl]methyl]piperazin-1-yl]-N,N-diethylbenzamide]
ASMS ratio (%) n = 1 [1]: 0.0%
ASMS ratio (%) n = 2 [1]: −1.1%

ASMS ratio (%) n = 1 (AS-MS, mixture library, Bcl-2): 0.8%
ASMS ratio (%) n = 2 (AS-MS, mixture library, Bcl-2): −2.1%
Compound: CCOc1cncc(-c2ccc(C(=O)N3CCN(c4ccc(C(=O)NS(=O)(=O)CC56CC7CC(CC(C7)C5)C6)cc4)CC3)cc2C)c1 [B2A026-01, N-(1-Adamantylmethylsulfonyl)-4-[4-[4-(5-ethoxypyridin-3-yl)-3-methylbenzoyl]piperazin-1-yl]benzamide]

ASMS ratio (%) n = 1 (AS-MS, mixture library, Bcl-2): 0.0%
ASMS ratio (%) n = 2 (AS-MS, mixture library, Bcl-2): 0.0%
Compound: CCOc1cncc(-c2ccc(CN3CCN(c4ccc(C(=O)NS(=O)(=O)CC56CC7CC(CC(C7)C5)C6)nn4)CC3)c(OC)c2)c1 [B2A080-01, N-(1-Adamantylmethylsulfonyl)-6-[4-[[4-(5-ethoxypyridin-3-yl)-2-methoxyphenyl]methyl]piperazin-1-yl]pyridazine-3-carboxamide]

ASMS ratio (%) (n = 1): −0.6%
ASMS ratio (%) (n = 2): 1.5%
Compound: CCOc1cncc(-c2ccccc2CN2CCN(c3ccc(C(=O)NS(C)(=O)=O)cc3)CC2)c1 [B2I046-01, 4-[4-[[2-(5-Ethoxypyridin-3-yl)phenyl]methyl]piperazin-1-yl]-N-methylsulfonylbenzamide]

ASMS ratio (%) (n = 1): 1.2%
ASMS ratio (%) (n = 2): −2.0%
Compound: CCOc1cncc(-c2ccc(C(=O)N3CCN(c4ccc(C(=O)NS(=O)(=O)CCC(F)(F)F)nn4)CC3)cc2C)c1 [B2N004-01, 6-[4-[4-(5-Ethoxypyridin-3-yl)-3-methylbenzoyl]piperazin-1-yl]-N-(3,3,3-trifluoropropylsulfonyl)pyridazine-3-carboxamide]

ASMS ratio (%) n = 1 [2]: 2.2%
ASMS ratio (%) n = 2 [2]: −1.3%
Compound: CCOc1cccc(-c2ccc(CN3CCN(c4ccc(C(=O)NCC(F)(F)F)nn4)CC3)c(OC)c2)c1 [B1K079-01, 6-[4-[[4-(3-Ethoxyphenyl)-2-methoxyphenyl]methyl]piperazin-1-yl]-N-(2,2,2-trifluoroethyl)pyridazine-3-carboxamide]

ASMS ratio (%) (n = 1): 0.0%
Compound: CCOc1cccc(C#Cc2ccccc2C(=O)N2CCN(c3ccc(C(=O)NS(=O)(=O)c4ccc(NCCSc5ccccc5)c(C(F)(F)F)c4)nn3)CC2)c1 [B2R007-01, 6-[4-[2-[2-(3-Ethoxyphenyl)ethynyl]benzoyl]piperazin-1-yl]-N-[4-(2-phenylsulfanylethylamino)-3-(trifluoromethyl)phenyl]sulfonylpyridazine-3-carboxamide]

Compound: CCOc1cccc(-c2csc(CN3CCN(c4ccc(C(=O)Nc5ccc(OC)cc5)cc4)CC3)c2)c1 [B1O067-01]
ASMS ratio (%) n = 1 [1]: 0.0%
ASMS ratio (%) n = 2 [1]: 0.0%

ASMS ratio (%) (n = 1): 0.0%
ASMS ratio (%) (n = 2): 2.8%
Compound: CCOc1cncc(-c2cc(CN3CCN(c4ccc(C(=O)NS(=O)(=O)C(C)(C)C)nn4)CC3)cc(C(F)(F)F)c2)c1 [B2L088-01, N-tert-Butylsulfonyl-6-[4-[[3-(5-ethoxypyridin-3-yl)-5-(trifluoromethyl)phenyl]methyl]piperazin-1-yl]pyridazine-3-carboxamide]

ASMS ratio (%) n = 1 [2]: 0.6%
ASMS ratio (%) n = 2 [2]: −1.8%
Compound: CCOc1cncc(-c2cc(C(=O)N3CCN(c4ccc(C(=O)NCC(F)(F)F)cc4)CC3)cc(C(C)(C)C)c2)c1 [B1K038-01, 4-[4-[3-tert-Butyl-5-(5-ethoxypyridin-3-yl)benzoyl]piperazin-1-yl]-N-(2,2,2-trifluoroethyl)benzamide]

Compound: 6-[4-[[4-(3-Ethoxyphenyl)naphthalen-1-yl]methyl]piperazin-1-yl]-N-propylpyridazine-3-carboxamide [B1M045-01]
ASMS ratio (%) n = 1 [2]: 2.5%
ASMS ratio (%) n = 2 [2]: −2.3%
